From patent publication US20080221114A1, “2-(Cyclic Aminocarbonyl) Indoline Derivative and Medicinal Composition Containing the Same” (priority 2005, published 2008) come the findings set out here.

What is called IC50 is the point on the concentration scale where inhibition reaches its midpoint. As a reminder, the melting point is the temperature, or range, at which the solid turns liquid.

In one data set the test system is mice (male ddY). Description: Social interaction test (antianxiety effect). The data set is classed as in vivo, mouse. The following applies: oral, 1 hour before test; statistically significant increase in social interaction time vs vehicle (Dunnett's test, 5%). The text has this:
The test is a behavioral pharmacological test wherein social interaction time which would arise between 2 animals (mice, rats or other) in a test apparatus is considered to be as an anxious indicator [see; File, S. E., J. Neurosci. Methods, 2, 219-238 (1980)]. It is known that a bright and unfamiliar test apparatus which is an aversive condition for mice or rats may suppress a social interaction of the animals and such suppressed social interaction may be restored by an antianxiety drug such as benzodiazepines.
A glass beaker which was inverted onto a frosted glass plate was brightly illuminated with a light source (ca. 1200 lux in the apparatus), and it was used as a test apparatus. Two mice (male ddY, 22-32 g) that were housed in separate home cages were orally treated with a test compound and returned to their home cages. One hour after the oral administration, the two mice were then placed together in the test apparatus, and the amount of time spent in social interaction by the two mice during a 15-minute period was recorded. The social interaction was defined as grooming and sniffing of the partner, genital investigation of the partner, climbing over or crawling under the partner. Four to five pairs (8 to 10 mice) were used per a group.
An antianxiety effect of the test compounds was presented as a minimum effective dose which indicated statistically significant increase in social interaction time as compared with a vehicle control group (Dunnett's test, Significance level: 5%).

Data set [1] addresses T1, mitochondrial benzodiazepine receptor (MBR) (Rattus norvegicus, UniProt P16257).
T1 construct: from tissue; host or cells: kidney of male Wistar rats (crude membrane preparation)
Description: Binding assay of mitochondrial benzodiazepine receptor (MBR), [3H]4'-chlorodiazepam (Ro5-4864), rat kidney membrane-preparation. The conditions noted are these: rat kidney membranes, [3H]4'-chlorodiazepam 0.5 nM, 0° C. for 150 minutes. The essentials: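 Kidney membranes from male Wistar rats were incubated with 0.5 nM [3H]Ro5-4864 in pH 7.4 sodium/potassium phosphate buffer with 100 mM NaCl for 150 min at 0 °C, then filtered. Nonspecific binding was defined with 50 μM diazepam. IC50 was obtained by nonlinear least-squares fitting of specific-binding inhibition.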

For another data set, the system named is male Std-Wistar rats. Put plainly: Forced swimming test (antidepressant effect). The data set is classed as in vivo, rat. The following applies: 1 mg/kg orally 3 times (24 hours, 4 hours and 1 hour before the test); 6-minute period; vs vehicle, p<0.01. As for the experimental part:
An animal (mouse or rat) which is forced to swim in an inescapable water tank show an immobile posture, thought to reflect a state of behavioral despair, after an initial period of vigorous swimming activity. The forced swimming test, a behavioral despair model, is frequently used for evaluating antidepressant effect since a lot of antidepressants reduce the duration of immobility induced by forced swimming. The antidepressant effect of the compound of the present invention was evaluated in the forced swimming test based on the method of Porsolt R. D. et al. [see; Eur. J. Pharmacol., 47, 379-391 (1978)] with a minor modification.
In the test, a group of five male Std-Wistar rats, weighing 110-150 g, which were selected after training session was used. […]
The test compound (the compound of Example 40) was orally administered 3 times, i.e., 24 hours, 4 hours and 1 hour before the test. One hour after the final oral administration, the rats were put into the water and the immobile time observed during a 6-minute period was recorded. The effect shortening the immobile time in the test compound-treated group was evaluated using a Dunnett's multiple comparison test as compared with the vehicle control group.

Take “2-[((cis-3,5-dimethylpiperidin-1-yl)-carbonyl]-1-(2-pyrimidinyl)indoline [Example 1]”: the Minimum effective dose in the data set on mice (male ddY) worked out at 0.001 mg/kg. In data set [1], this compound yielded an IC50 of 1.98 nM.
`C[C@H]1CCCN(C(=O)[C@@H]2Cc3ccccc3N2c2ncccn2)C1` [Example 23, (S)-2-[(S)-3-methylpiperidin-1-yl]carbonyl-1-(2-pyrimidinyl)indoline] yielded a melting point of 212 to 214 °C. The compound further returned a Minimum effective dose in the data set on mice (male ddY) of 0.01 mg/kg. This compound came in with an IC50 in data set [1] of 0.949 nM.
`C[C@@H]1C[C@H](C)CN(C(=O)[C@@H]2Cc3ccccc3N2c2ncccn2)C1` [Example 24, (S)-2-(cis-3,5-dimethylpiperidin-1-yl)carbonyl-1-(2-pyrimidinyl)indoline] came in with a melting point of 163 to 164 °C. The same compound came in with a Minimum effective dose in the data set on mice (male ddY) of 0.001 mg/kg. In addition, the IC50 in data set [1] was found to be 0.851 nM.
As to `C[C@H]1CCCN(C(=O)[C@@H]2Cc3ccccc3N2c2ccc(=O)n(C)n2)C1` [Example 40, (S)-1-(1-methyl-6-oxo-1,6-dihydropyridazin-3-yl)-2-[[(S)-3-methylpiperidin-1-yl]carbonyl]indoline], the melting point was 219 to 221 °C. Besides, the Minimum effective dose in the data set with mice (male ddY) came out at 1 mg/kg. Further, the IC50 in data set [1] stood at 6.05 nM. Further, in the data set on male Std-Wistar rats, the “shortening of the immobile time” value is listed as 28%.
`C[C@@H]1C[C@H](C)CN(C(=O)[C@@H]2Cc3ccccc3N2c2ccc(=O)n(C)n2)C1` [Example 41, (S)-1-(1-methyl-6-oxo-1,6-dihydropyridazin-3-yl)-2-[(cis-3,5-dimethylpiperidin-1-yl)carbonyl]indoline] yielded a melting point of 200 to 204 °C. The compound also yielded a Minimum effective dose in the data set with mice (male ddY) of 0.01 mg/kg. In addition, in data set [1], the 50% inhibitory concentration (IC50) was 2.41 nM.
As to `C[C@@H]1C[C@H](C)CN(C(=O)[C@@H]2Cc3ccccc3N2c2cccnn2)C1` [Example 57, (S)-2-[(cis-3,5-dimethylpiperidin-1-yl)-carbonyl]-1-(3-pyridazinyl)indoline], the Minimum effective dose in the data set with mice (male ddY) is given as 0.1 mg/kg. Further, the IC50 in data set [1] is 2.03 nM.
Consider `C[C@H]1CCCN(C(=O)[C@@H]2Cc3ccccc3N2c2cccnn2)C1` [Example 63, (S)-2-[(S)-3-methylpiperidin-1-yl]carbonyl-1-(3-pyridazinyl)indoline], for which the melting point fell in the range of 143 to 145 °C. Further, in the data set on mice (male ddY), the Minimum effective dose came to 0.01 mg/kg. This compound gave an IC50 in data set [1] of 2.51 nM.
In the data set with mice (male ddY), `CCn1nc(N2c3ccccc3C[C@H]2C(=O)N2CCC[C@H](C)C2)ccc1=O` [Example 129, (S)-1-(1-ethyl-6-oxo-1,6-dihydropyridazin-3-yl)-2-[[(S)-3-methylpiperidin-1-yl]carbonyl]indoline] had a Minimum effective dose of 1 mg/kg. Further, the IC50 in data set [1] is 5.56 nM.
